In patent EP0791072B1, “PROCESS FOR DETERMINING THE ACTIVITY OF SPECIFIC PHOSPHOTYROSINE PHOSPHATASES AND SPECIFIC EFFECTORS THEREOF IN INTACT CELLS” (Max-Planck-Gesellschaft zur Förderung der Wissenschaften …, priority 1994, dated 1996):

Assays:
Type in all cases: cell-based, Maus
[1] = tested on: PDGF-Rezeptor-gerichtete(n) PTPase(n)
[2] = tested on: PDGF-Rezeptor PTK; test: Inhibition of PDGF-induced receptor autophosphorylation in intact Swiss 3T3 cells (anti-phosphotyrosine immunoblot); conditions: AG 1296 50 µM, 2 min preincubation, then PDGF-BB 100 ng/ml for 5 min
Text: (§1) Swiss 3T3 Fibroblasten (Maus) exprimieren PDGFα und PDGFβ-Rezeptoren auf der Zelloberfläche (Hosang et al. (1989)). Die Stimulation der Zellen mit PDGF führt zu einer raschen Autophosphorylierung dieser Rezeptoren an Tyrosinresten. […] Die autophosphorylierten Rezeptoren werden durch PDGF-Rezeptor-gerichtete PTPase(n) rasch dephosphoryliert (Bohmer et al. (1993)). Die Identität der zellulären PTPasen, die diese Reaktion katalysieren, ist nicht bekannt. Ein hochspezifischer Inhibitor für die PDGF-Rezeptor PTK (AG 1296) hemmt deren Aktivität bereits nach sehr kurzer Behandlung der Zellen (2 min) vollständig (Abb. 1). In isolierten Membranen von Swiss 3T3-Zellen beeinflußt der Inhibitor die in den Membranen enthaltenen PTPase(n) für den autophosphorylierten PDGF-Rezeptor in ihrer Aktivität nicht (Abb. 2). Wird der Inhibitor Zellen nach Aktivierung der PDGF-Rezeptor PTK zugesetzt, kann die Dephosphorylierung des PDGF-Rezeptors zeitabhängig verfolgt werden (Abb. 3).

[3] = tested on: PDGF-Rezeptor; test: Time course of PDGF receptor phosphotyrosine content in intact Swiss 3T3 cells, PTK inhibitor added after PDGF stimulation; conditions: AG 1296 50 µM added after 5 min PDGF stimulation, over incubation time
Text: as §1
Swiss 3T3-Zellen wurden in serumfreiem Medium mit PDGF (Abb. 3, Bahn 2-6) oder dem entsprechenden Lösungsmittel (Abb. 3, Bahn 1) behandelt. Nach 5-minütiger Stimulation wurde AG 1296 (50 µM, Abb. 3 B) oder entsprechendes Lösungsmittel (DMSO, Abb. 3 A) zugesetzt. […] Diese Abnahme wird durch die Aktivität der PDGF Rezeptor-gerichteten PTPase in den intakten Zellen bewirkt. Eine graphische Auswertung ist in Abb. 4 gezeigt. […]

Structure (SMILES)	Relative PDGF Rezeptor-gerichtete PTPase-Aktivität (% der Kontrolle) [1] [% der Kontrolle]	PDGF-induzierte Autophosphorylierung des Rezeptors [2]	Phosphotyrosingehalt der PDGF-Rezeptoren [3]
CNc1ccc2oc(C[C@H]3O[C@@]4(CC[C@H]3C)O[C@H]([C@H](C)C(=O)c3ccc[nH]3)[C@H](C)C[C@H]4C)nc2c1C(=O)O [A 23187, 5-(Methylamino)-2-[[3,9,11-trimethyl-8-[1-methyl-2-oxo-(1H-pyrrol-2-yl)ethyl]-1,7-dioxaspiro[5,5]undec-2-yl]methyl]-4-benoxazolcarbonsäure]	161		
COc1cc2ncc(-c3ccccc3)nc2cc1OC [AG 1296]		vollständig unterdrückt	kontinuierlich ab
